Results: patent US12076432B2, “Method of repairing oxidatively treated hair” (Conopco, Inc., priority 2018, dated 2024)

How the values were obtained:
[1] = Denaturation temperature (Td) by DSC of bleached hair after soak in 1% aqueous N-acetyl amino acid solution; design: Denaturation Temperature Td (n = 3): unit not given here; conditions: hair soaked 30 minutes in 1% aqueous solution; for Denaturation Temperature Td (n = 3): DSC, no rinse; for Difference from control (Td): vs Control 1 or Control 2 (twice bleached hair), in °C (unit assumed)
Description: Hair that has been damaged has internal protein with a reduced denaturation temperature compared to that of virgin hair. The reduction in denaturation temperature is attributed to a degradation of the internal hair cortex proteins.
Hair damage can be measured in different ways. This invention focusses on the structural integrity of hair cortex proteins, as can be determined by Differential Scanning Calorimetry.
(§1) Hair was bleached for 30 min with Platine Precision White Compact Lightening Powder (L'Oreal Professionnel Paris, Paris, France) mixed with 9% cream peroxide, 30 ‘vol’ (Excel GS Ltd, UK) (60 g of powder mixed with 120 g cream peroxide). Hair was then rinsed with water for 2 minutes. This procedure was repeated on the same hair to produce twice bleached hair.
(§2) In the following examples, compositions A-C are comparative examples and 1-6 are in accordance with the invention. The compositions are 1% aqueous solutions of various N-Acetyl amino acids, prepared by adding the N-acetyl amino acid to water with stirring.
In the following experiments, Control 1 and 2 were from two different batches of twice bleached hair. They were dialysed with water before being used.
(§3) Twice bleached dark brown European hair was soaked for 30 minutes in 1% aqueous solutions of various N-Acetyl amino acids. The hair was then removed from the solution. Clippings from a few fibres were then taken and the denaturation temperature (Td) was measured using DSC.

[2] = Denaturation temperature (Td) by DSC of soaked bleached hair after subsequent rinse step; conditions: for Difference from control (Td): after soak and 30 seconds rinse, vs Control 1 or Control 2; for Td (n = 3): after soak, rinsed in running water for 30 seconds, DSC
Description: as §1, §2, §3
The effect of a subsequent rinse step was determined.
(§4) The switches from experiment 1 were rinsed in running water for 30 seconds.

[3] = Denaturation temperature (Td) by DSC of soaked and rinsed bleached hair after wash with base wash; conditions: after soak; for Difference from control (Td): rinse and wash with 14% SLES, vs Control (DB) or Control 2; for Td (n = 3): rinse and wash with base wash (14% SLES solution), DSC
Description: as §1, §2, §3, §4
The rinsed switches of experiment 2 were washed with base wash (14% SLES solution) and DSC performed.
Hair was washed with a cleansing shampoo using the following method:—
The hair fibres were held under running water for 30 seconds, shampoo applied at a dose of 0.1 ml of shampoo per 1 g of hair and rubbed into the hair for 30 seconds. Excess lather was removed by holding under running water for 30 seconds and the shampoo stage repeated. The hair was rinsed under running water for 1 minute.

Row | Compound | Denaturation Temperature Td (n = 3) [1] | Difference from control (Td) [1] | Difference from control (Td) [2] [°C] | Td (n = 3) [2] | Difference from control (Td) [3] [°C] | Td (n = 3) [3]
1 | CC(=O)N[C@@H](CCC(N)=O)C(=O)O [N-Acetyl Glutamine] | 155.15 | 6.55 | 1.97 | 150.75 | 2.5 | 150.85
2 | CC(=O)N[C@@H](CS)C(=O)O [N-Acetyl Cysteine, reference compound] | 149.27 | 0.67 | – | – | – | –
3 | CC(=O)N[C@@H](CCC(=O)O)C(=O)O [N-Acetyl Glutamic acid] | 154.69 | 6.09 | 3.89 | 152.67 | 2.9 | 151.26
4 | CC(=O)N[C@@H](CO)C(=O)O [N-Acetyl Serine] | 156.25 | 7.65 | 3.02 | 151.80 | – | –
5 | CC(=O)N[C@@H](C)C(=O)O [N-Acetyl Alanine] | 156.00 | 7.4 | 4.2 | 152.99 | 2.76 | 151.11
6 | CSCC[C@H](NC(C)=O)C(=O)O [N-Acetyl Methionine] | 153.36 | 7.79 | 3.85 | 149.97 | 5.42 | 151.14
7 | CC(=O)N[C@@H](Cc1c[nH]cn1)C(=O)O [N-Acetyl Histidine] | 148.08 | 2.51 | 1.64 | 147.76 | 1.93 | 147.65
8 | CC(=O)N1CCC[C@H]1C(=O)O [N-Acetyl Proline] | 154.46 | 5.86 | 2.16 | 150.95 | 1.08 | 149.43
9 | CC(=O)N[C@@H](CCCNC(=N)N)C(=O)O [N-Acetyl Arginine, reference compound] | 148.57 | −0.03 | – | – | – | –
